The source of these data is PubChem BioAssay AID1159559 (GlaxoSmithKline (GSK), 2015).

The subject of this assay is T. cruzi Tulahuen in NIH-3T3, beta-gal fluorescence, 4 d. Description: anti-Chagas amastigote proliferation inhibitors – cell-based (AID 1159559).

Structures are written as SMILES. Active and inactive are the calls of the source.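 Rule for the calls: active = compounds whose IC50 against parasite growth in infected mouse cells is below 50000 nM; inactive = the rest.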

Consider `Oc1c(-c2n[nH]c(Cc3ccc(F)cc3)n2)ncc2cccnc12`, for which the 50% inhibitory concentration (IC50) was 0.16 µM.

Regarding `NC(=O)c1ncc(N[C@@H]2CCCNC2)nc1Nc1cccc(Cl)c1`, the IC50 is 0.32 µM.

As for `COc1ccccc1C1CC(c2ccc(NS(C)(=O)=O)cc2)=NN1C(=O)c1cccs1` (stereo not given), the IC50 was 25 µM.

`COc1ccc(Cc2nc(-c3ncc4cccnc4c3O)n[nH]2)cc1OC`: the IC50 is 1.3 µM.

Take `COc1ccc(NS(=O)(=O)c2cc(NC(=O)c3ccc([N+](=O)[O-])s3)ccc2OC)cc1`: the IC50 was 0.063 µM.

As for `CNc1cncc(C2CCCN2C(=O)Cc2ccc3ccccc3c2)n1` (stereo not given), the IC50 is 0.079 µM.

With `Cc1nccn1C1CCCN(C(=O)c2cc3c(F)cccc3s2)C1` (stereo not given), the IC50 was 0.63 µM.

Turning to `Fc1ccc(OC2CC(NCc3cccc4cn[nH]c34)C2)cc1C(F)(F)F` (stereo not given), the IC50 was 0.79 µM.

`O=C(CN(c1cccc(C(F)(F)F)c1)S(=O)(=O)c1ccc(Cl)cc1)NCc1ccc(F)c(F)c1`: the IC50 was 0.79 µM.

As to `O=C1CN(C2CCCc3c(OCc4ccncc4)cccc32)C(=O)N1C1CCCCC1` (stereo not given), the IC50 was 0.25 µM.

Take `CCc1cccc(CC)c1-n1c(SCC(=O)N2CC(=O)Nc3ccccc32)nnc1-c1cccnc1`: the IC50 was 25 µM.

In the case of `CN(Cc1nnnn1C1CCN(Cc2ccc(-n3ccnc3)cc2)CC1)c1ccc(F)cc1F`, the IC50 was 0.32 µM.

`CNC(=O)C1Cc2ccccc2N1C(=O)Cc1ccccc1` (stereo not given): the IC50 is > 50 µM (inactive).

As to `N#Cc1ccc(C(=O)Nc2cccc(-c3cccc(CN4CCC(O)CC4)c3)c2)cc1`, the IC50 is 5 µM.

In the case of `CS(=O)(=O)c1ccc(CC(=O)Nc2nc(-c3ccc(Cl)s3)cs2)cc1`, the half-maximal inhibitory concentration (IC50) is 0.4 µM.

On to `O=C(NCC1CCCCN1C(=O)c1cccc2ccccc12)c1ccccc1` (stereo not given), for which the IC50 was 6.3 µM.

On to `Cc1[nH]n2c(=O)c3c(nc2c1-c1ccc(F)cc1)CCCC3`, for which the IC50 is 1.6 µM.

In the case of `Cc1nc2c(-c3cccs3)c(C)nn2c(NCCO)c1C`, the IC50 was 40 µM.

Take `O=C(CC1(O)C(=O)N(Cc2cccs2)c2ccc(Br)cc21)c1cccnc1` (stereo not given): the IC50 is 5 µM.

As for `O=c1[nH]cnc2c([C@@H]3O[C@H](CO)[C@@H](O)[C@H]3O)[nH]nc12`, the IC50 was 0.13 µM.

For the compound `CN(C)Cc1cccc(Nc2nccc(-c3ccc(NCCN)c(C#N)c3)n2)c1`, the IC50 was 1 µM.

Turning to `COc1cnc2ccc(=O)n(CCN3CCC(NC/C=C/c4cc(F)ccc4F)CC3)c2c1`, the IC50 was 0.016 µM.

In the case of `O=C(COc1nn(-c2ccccc2)c2ncccc12)NCc1ccccc1`, the IC50 was 13 µM.

Consider `NCC(Cc1ccccc1)NC(=O)c1cnc(-c2c[nH]c3ncccc23)s1` (stereo not given), for which the IC50 was 2 µM.

With `Cc1c(C(=O)NCCCCn2ccnc2)oc2c(C)cccc12`, the IC50 was 0.2 µM.

For `Cc1c(CNC(=O)c2ccc(Cn3cc(Cl)c([N+](=O)[O-])n3)cc2)cnn1C`, the IC50 is 1 µM.

For the compound `O=c1cc(NCCCNC2CCOc3c(I)cc(Cl)cc32)[nH]c2ccccc12` (stereo not given), the IC50 was 0.79 µM.

On to `COc1ccccc1-c1c(C)[nH]c2nc(N)nc(C)c12`, for which the IC50 is 0.16 µM.

`CCN(C)Cc1ccc(N2CCC(NS(=O)(=O)c3ccc4c(c3)CCO4)CC2)nc1`: the IC50 was 0.63 µM.

With `Cc1cc(C)c(C#N)c(SCC(=O)c2ccc3c(c2)OCO3)n1`, the IC50 is 2 µM.

With `CCNc1cc(-c2ccccn2)nc(Nc2ccc(OC)cc2)n1`, the IC50 is 0.63 µM.

For `COc1ccc(NS(=O)(=O)c2cc(NC(=O)Cc3ccc(C)cc3)ccc2N2CCOCC2)cc1`, the IC50 was 2 µM.

In the case of `O=C(Nc1nc(-c2ccccn2)cs1)C1CCc2ccccc2C1` (stereo not given), the IC50 is 2 µM.

On to `COc1ccc(-c2cnc(C)o2)cc1S(=O)(=O)Nc1ccc(C)cc1C`, for which the IC50 is 2.5 µM.

As to `COCCn1c(-c2ccccc2)cnc1NCc1ccccc1OC`, the IC50 is 13 µM.

As to `COc1ccc(NC(=O)c2ccc(NC(=O)CN(c3ccccc3C)S(C)(=O)=O)cc2)cc1`, the concentration for half-maximal inhibition (IC50) is 32 µM.

`CCN(CC)c1ccc(S(=O)(=O)N(CC)CC)c2nonc12`: the IC50 is 25 µM.

For `NC(=O)c1cc(F)ccc1Nc1nc(NC2CCC(O)CC2)ncc1Br` (stereo not given), the IC50 was 2.5 µM.

Consider `Cc1cccc(Nc2nc(-c3ccccn3)cs2)n1`, for which the IC50 was 0.63 µM.

Regarding `Cc1ccccc1CNC(=O)CN(Cc1ccccn1)Cc1ccccn1`, the IC50 was 5 µM.

Regarding `O=c1[nH]c(C=Cc2cccc(OCCOc3ccccc3)c2)nc(O)c1[N+](=O)[O-]`, the IC50 was 0.79 µM.

Regarding `COCc1cnc2c(c1SCc1c(F)cccc1Cl)c(=O)n(C)c(=O)n2C`, the IC50 was > 50 µM (inactive).

Regarding `O=S(=O)(c1cccc(CSc2nnc(-c3ccc4c(c3)OCO4)o2)c1)N1CCOCC1`, the IC50 is 0.2 µM.

`COc1ccc(CNc2cc(C3CC3)nc(-c3nccn3C)n2)cc1`: the IC50 is 1 µM.

Take `Nc1nccc(-c2csc(Nc3ccc(Cl)cc3)n2)n1`: the IC50 is 1.3 µM.

Turning to `CC(C(=O)Nc1ccc(Br)cc1)N1CCN(c2ccc([N+](=O)[O-])cc2)CC1` (stereo not given), the IC50 is 2.5 µM.

For the compound `CC(C)c1cc(C(=O)N2CCCC(c3cc4ncccc4[nH]3)C2)on1` (stereo not given), the IC50 was 2 µM.

Take `CNS(=O)(=O)c1ccccc1Nc1nc(Nc2ccnn2C)ncc1Cl`: the IC50 was 0.4 µM.

For `CCC(=O)N1N=C(c2ccc3c(c2)CCCC3)Sc2c1ncn2C(=O)CC`, the concentration for half-maximal inhibition (IC50) is 6.3 µM.

On to `COc1ccc2ncc(F)c(NC(=O)C3(O)CCC(NCc4ccc5c(c4)OCCO5)CC3)c2n1` (stereo not given), for which the IC50 was 0.16 µM.

As to `CCOc1cnn(C)c(=O)c1Nc1ccc(C(=O)NCc2ccc(F)cc2)cc1`, the IC50 was 0.25 µM.

As for `OC1CCC(Nc2nccc(-c3sc(C4CCOCC4)nc3-c3ccc(F)c(F)c3)n2)CC1` (stereo not given), the half-inhibitory concentration (IC50) is 0.32 µM.

Regarding `CCn1c(NC(=O)Cc2ccc(F)cc2)nc2ccccc21`, the IC50 was 5 µM.

Consider `CCc1cccc(CC)c1-n1c(SCC(=O)NC(=O)NCc2ccco2)nnc1-c1cccnc1`, for which the 50% inhibitory concentration (IC50) was 13 µM.

Regarding `Cc1[nH]c2ccccc2c(=O)c1Cc1c(C)[nH]c2ccccc2c1=O`, the IC50 was 2.5 µM.

Consider `C[C@@H](Oc1cc(-n2cnc3cc(N)ccc32)sc1C(N)=O)c1ccccc1Cl`, for which the IC50 was 1.3 µM.

For the compound `O=C(NCc1nnc2n1CCCCC2)c1csc(-c2ccccc2)n1`, the IC50 is 2.5 µM.

On to `COc1ccc(S(=O)(=O)Nc2ccc(C(=O)Nc3nc(-c4ccccn4)cs3)cc2)cc1`, for which the 50% inhibitory concentration (IC50) was 0.79 µM.

As to `COc1ccc(C2CC(c3ccccc3Cl)=NN2C(=O)CNC(=O)C2CCCC2)cc1` (stereo not given), the half-inhibitory concentration (IC50) was 3.2 µM.

As to `O=C(Nc1cccc(F)c1)N1CCC(Oc2cccc(-c3cccnc3)c2)CC1`, the concentration for half-maximal inhibition (IC50) was 0.63 µM.

As for `COc1ccc(-c2ccc3nnc(-c4ccc(O)c(OC)c4)n3c2)cn1`, the IC50 is 1.3 µM.

With `CCN(CC)S(=O)(=O)c1ccc(C)c(NC(=O)c2cc(Cl)c3c(c2)OCO3)c1`, the IC50 was 6.3 µM.

Regarding `Cc1ccc2c(c1)-c1onc(C(=O)N3CCCCC3c3cccnc3)c1CO2` (stereo not given), the IC50 was 0.1 µM.

In the case of `O=C1c2cnc(N3CCCC3)nc2CN1c1ccc2c(c1)OCO2`, the concentration for half-maximal inhibition (IC50) was 2.5 µM.

In the case of `CCOc1ccc(NC(=O)c2ccc(NC(=O)NC3CCCCC3)cc2)cc1`, the IC50 was 32 µM.

Turning to `Cc1cc2ncn(-c3ccc([N+](=O)[O-])cc3C#N)c2cc1C`, the IC50 was 1.3 µM.

Regarding `O=C(Nc1nc(-c2ccccn2)cs1)c1ccccc1-n1cnnn1`, the IC50 is 3.2 µM.

Consider `COc1ccc(C(=O)Nc2ccc(NC(=O)CO)cc2)cc1`, for which the IC50 was > 50 µM (inactive).

`Cc1nc(C(=O)Nc2ccc3c(c2)OCO3)nn1-c1ccc(F)cc1`: the 50% inhibitory concentration (IC50) was 3.2 µM.

With `O=C1COC(c2ccccc2)(c2ccccc2)CN1C1CCN(Cc2ccc(-n3ccnc3)cc2)CC1`, the IC50 is 1.6 µM.

Consider `CC(CNS(=O)(=O)c1ccc(OC(F)F)cc1)c1ccc(NC(=O)c2ccncc2)cc1` (stereo not given), for which the IC50 is 0.2 µM.

As to `COc1ccc(C2=NCC(CSc3nnc(-c4ccc5c(c4)OCO5)o3)S2)cc1` (stereo not given), the IC50 was 2.5 µM.

For the compound `O=C(CSc1ccc(-c2ccccn2)nn1)Nc1ccc(Cl)cc1`, the IC50 was 2.5 µM.

Consider `O=C(Nc1n[nH]c(-c2ccccn2)n1)C1CC1c1ccccc1` (stereo not given), for which the IC50 was 16 µM.

Consider `Cc1nc(-c2ccc3c(c2)OCO3)sc1C(=O)NCc1ccc2c(c1)OCO2`, for which the concentration for half-maximal inhibition (IC50) was 3.2 µM.

In the case of `CN(C)S(=O)(=O)c1ccc(Cl)c(C(=O)Nc2nc(-c3ccccn3)cs2)c1`, the IC50 was 1.6 µM.

On to `O=C(Cn1cnc([N+](=O)[O-])n1)Nc1ccc(Cl)cc1C(=O)c1ccccc1`, for which the IC50 is 0.25 µM.

With `CS(=O)(=O)c1cccc(-c2cnc(N)c3c(-c4ccc(CO)cc4)csc23)c1`, the IC50 was 0.79 µM.

Consider `O=C(CCc1ccc(-c2ccccc2)o1)N1CCN(c2ccc(O)cc2)CC1`, for which the IC50 is 3.2 µM.

Turning to `Cc1ccccc1CNc1cc(C2CC2)nc(-c2nccn2C)n1`, the IC50 is 0.79 µM.

Regarding `OCCCNc1nc(Nc2ccncc2)nc2ccccc12`, the IC50 was 0.63 µM.

As to `Cc1nc(-c2nc(NCc3ccc(Cl)cc3)c3cccnc3c2O)n[nH]1`, the IC50 is 0.63 µM.

Turning to `COCc1cc(Nc2ccc(Cl)cc2)nc(-c2ccccn2)n1`, the IC50 was 1.6 µM.

Turning to `CCN(CC)S(=O)(=O)c1ccc(OC)c(NC(=O)c2ccc([N+](=O)[O-])s2)c1`, the IC50 is 0.25 µM.

On to `N#Cc1ccccc1S(=O)(=O)N1CCN(C(=O)CNC(=O)c2ccc3c(c2)OCO3)CC1`, for which the IC50 was 16 µM.

As to `O=C(CN1CCN(c2ccccn2)CC1)Nc1cc(S(=O)(=O)N2CCCCCC2)ccc1Cl`, the IC50 was 10 µM.

Regarding `Cc1ccc(NC(=O)c2ccnc(N3CCCC3)c2)cc1-c1ccsc1C(N)=O`, the IC50 was 13 µM.

Regarding `O=C(NCCc1ccn(-c2ccccc2)n1)C1CCCCC1`, the IC50 was 1.3 µM.

For the compound `CCc1cccc(-n2nc(OCC(=O)NC3CCCC3)c3cccnc32)c1`, the IC50 was > 50 µM (inactive).

Regarding `COc1ccc(S(=O)(=O)Nc2ccc(CN3CCN(C(=O)c4cccc(C#N)c4)CC3)cc2)cc1`, the IC50 is 1 µM.

As to `CCOc1ccc(OCC(=O)N2c3ccccc3CC2C(=O)NC)cc1` (stereo not given), the IC50 was > 50 µM (inactive).

On to `COc1cc(C(C)C)c(S(C)(=O)=O)cc1C(=O)N1CCN(c2ccccc2Cl)CC1`, for which the IC50 is 1.6 µM.

As for `COc1ccc(Cl)cc1CC(=O)Nc1n[nH]c(-c2ccccn2)n1`, the IC50 is 10 µM.

Consider `CC(C)(C)C(=O)Nc1cc(C2CC2)nn1-c1nc2c(c(=O)[nH]1)CCCC2`, for which the IC50 was 0.5 µM.

As to `CC(=O)Nc1ccc(CN2CCC(N3CC(c4ccccc4)(c4ccccc4)OCC3=O)CC2)cc1`, the concentration for half-maximal inhibition (IC50) was 13 µM.

What is called IC50 is the midpoint of a concentration-inhibition curve.
